Data set [1] is described as follows: Regulatory acceptable intake (AI) limits for nitrosamine impurities. Also on record: species or system human. The conditions noted are these: determined in view of the EMA limit. As to the method: FDA recommends the following acceptable intake (Al) limits fir the nitrosamine impurities a s given in the below table:
The conversion of Al limit into ppm varies by product and is calculated based on a drug's maximum daily dose (MDD) as reflected in the drug label (ppm=Al (ng)/MDD(mg)).
These limits are applicable only if a drug product contains a single nitrosamine.
Apart from NDMA there is another nitrosamine impurity, N-nitroso-varenicline which is usually found in APIs as well as finished product of varenicline. As per the recent update, USFDA has provided acceptable intake limit of N-nitroso-varenicline (VC09) from 37 ng/day to 185 ng/day, in finished product of varenicline.
Additionally, European Medicines Agency (EMA) has also provided the daily acceptable intake limit for N-nitroso-varenicline impurity as 18 ng/day. In view of the above limit minimum daily intake limit for VC09 was determined as 9 ppm.

The conditions of data set [2]: cited from earlier work; for AI Limit: FDA recommended acceptable intake limit in drug products.
Data set [3] is described as follows: Analysis of nitrosamine impurities (VC09, NDEA) in drug substance, blends and tablets. The class given is physicochemical. The following applies: Table 2.

On to `O=NN1CC2CC(C1)c1cc3nccnc3cc12` [N-nitroso-varenicline], for which, in data set [1], the “minimum daily intake limit” value is recorded as 9 ppm. The “daily acceptable intake limit” value in data set [2] (European Medicines Agency (EMA)) is listed as 18 ng/day.
As for `CCN(CC)N=O` [NDEA, N-nitrosodiethylamine], in data set [2], the “AI Limit” value is recorded as 26.5 ng/day.
As for `CC(C)N(N=O)C(C)C` [NDIPA, N-nitrosodiisopropylamine], the “AI Limit” value in data set [2] is listed as 26.5 ng/day.
As for `CN(C)N=O` [NDMA, N-nitrosodimethylamine], the “AI Limit” value in data set [2] is 96 ng/day.
As for `CCN(N=O)C(C)C` [NIPEA, N-nitrosoisopropylethyl amine], the “AI Limit” value in data set [2] is given as 26.5 ng/day.
Regarding `CN(CCCC(=O)O)N=O` [NMBA, N-nitroso-N-methyl-4-aminobutanoic acid], in data set [2], the “AI Limit” value is recorded as 96 ng/day.
Varenicline Tartrate [Drug Substance]: the “Nitrosamines Results in ppm, VC09” value is given as 0.20 ppm in data set [3] (40/75, 7 days, open); 0.27 ppm in data set [3] (60° C, 7 days, open); 0.23 ppm in data set [3] (Initial (Chantix tablets: condition not given)).

Values taken from patent US20240307310A1, “STABILIZED SOLID ORAL PHARMACEUTICAL COMPOSITION OF VARENICLINE” (LUPIN LIMITED, priority 2021, published 2024).
